Laboratory results as given in PMC12228687, “Harnessing protein language model for structure-based discovery of highly efficient and robust PET hydrolases” (Nature Communications, 2025).

Target: T1, FastPETase (mutant derived from IsPETase) (Pseudideonella sakaiensis, UniProt A0A0K8P6T7, S121E/D186H/R224Q/N233K/R280A, form not given)
T1 construct: gene ISF6_4831; engineered variant FastPETase; construct not described in the main text
Assay: p-nitrophenol release at […] nm, Michaelis-Menten nonlinear fit
Format: biochemical
Conditions: 10 mM potassium phosphate pH 8.0 (stock buffer), 50 °C, 3 min, 0.5 µg/mL enzyme, 0.2-1.8 mM pNPB

T1 sequence (A0A0K8P6T7 28-290 S121E/D186H/R224Q/N233K/R280A, form open): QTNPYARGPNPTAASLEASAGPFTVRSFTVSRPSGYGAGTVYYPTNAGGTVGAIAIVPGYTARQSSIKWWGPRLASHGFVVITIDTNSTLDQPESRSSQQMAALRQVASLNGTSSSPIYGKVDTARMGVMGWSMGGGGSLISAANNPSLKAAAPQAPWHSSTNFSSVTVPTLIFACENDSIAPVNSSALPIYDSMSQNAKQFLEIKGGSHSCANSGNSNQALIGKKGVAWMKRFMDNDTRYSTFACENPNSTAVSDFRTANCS

CCCC(=O)Oc1ccc([N+](=O)[O-])cc1 [p-nitrophenyl butyrate]
Km: 1570 ± 416 µM
